Experimental data: patent US20240118280A1 (priority 2022, published 2024)
Entries after “also recorded” stand apart in the source; their conditions may differ.

Target: T1, human EGFR kinase (Homo sapiens, UniProt P00533)
T1 construct: The EGFR kinase domain is incubated with Ibrutinib-yne or a DMSO control at 37° C. for 1 hour; made in house
Assay: Activity-based protein fingerprinting: covalent labelling of EGFR kinase by chemical probe (PAGE, fluorescent imaging, LC-MS)
Type: binding
Procedure: The EGFR kinase domain is incubated with Ibrutinib-yne or a DMSO control at 37° C. for 1 hour. The EGFR kinase domain bound to Ibrutinib-yne is exposed to cysteine reduction and capping using TCEP and chloroacetamide at 37° C. for 1 hour. The product is desalted with a 7 kDa zeba column and exposed to proteolytic digestion by trypsin at 37° C. for 16 hours. The product is further conjugated with bis-biotin-DNA-SS-azide at room temperature for 30 minutes and finally exposed to DTT at 65° C. for 10 minutes.
FIGS. 5A-5C show LC-MS plots of DMSO control (FIG. 5A), Ibrutinib-yne (FIG. 5B), and Ibrutinib-yne with a DNA control molecule and DTT (FIG. 5C). The blue box represents unmodified peptide, the green box represents peptide bound to Ibrutinib-yne, and the red box represents peptide-Ibrutinib-yne-DNA adduct following disulfide reduction.
Using the steps of Example 1, EGFR kinase was detected using activity-based protein fingerprinting. The commercially available drug analog Ibrutinib-yne, which binds to the catalytic cysteine of EGFR comprises an electrophilic warhead and an alkyne moiety for the CLICK handle processing step. Purified human EGFR kinase was generated (FIG. 2A) and exposed to Ibrutinib-yne (FIG. 2B). […] The target peptide detected by this protocol LLGIC(Alk)[…]) (SEQ ID NO:1) was detected by LC-MS (FIGS. 5A-5C).

Substance: Ibrutinib-yne
- LC-MS detection of target peptide LLGIC(Alk)[…] (SEQ ID NO:1) (after TCEP/chloroacetamide capping and trypsin digestion, vs DMSO control): detected only in its modified state
- probe-EGFR kinase complex observed by Coomassie Blue staining and fluorescent imaging (AF647-azide) (probe or DMSO control incubated with EGFR at 37° C. for 1 hour, PAGE): desired complex was observed; also recorded: only the protein bearing Ibrutinib-yne reacted with AF647-azide
